Test results reported in PubChem BioAssay AID1918946 (Molecular Pharmacology Branch, DTP, NCI, 2023).

Test system: 885512-296-R-J2-PDC complex spheroid viability
Test: Anticancer human tumor 885512-296-R-J2-PDC patient-derived breast carcinoma cell line growth inhibition
Conditions: for IC50: curve of first compound; for viability, T/C: stronger effect = lower value
Excerpt: Multicellular complex tumor spheroid response to LSD1 Inhibitor Iadademstat in combination with a variety of drugs and investigational agents in selected tumor cell lines
The current study was undertaken to assess response to LSD1 inhibitors in combination with standard-of-care drugs and investigational agents in solid tumor complex spheroid models as well as in the K-562 leukemia. Complex spheroids include a stromal component modeled by human endothelial cells (HUVEC) and fibroblasts modeled by human mesenchymal stem cells (MSCs). The concentration ranges selected for each drug and investigational agent were based upon clinically achievable concentrations if the clinical Cmax of the agent was known.
Compounds. The drugs and investigational agents used in this study are listed on Table 1. All of the agents used, including staurosporine (NSC755774) and gemcitabine (NSC613327), were obtained from the Developmental Therapeutics Program, NCI. FDA-approved anticancer drugs are available from the NCI at http://dtp.nci.nih.gov/branches/dscb/oncology_drugset_explanation.html. Drugs and investigational agents were >95% pure by proton nuclear magnetic resonance (NMR) and liquid chromatography/mass spectrometry (LC/MS). Stock solutions were prepared at 400x in DMSO, stored at -70 degrees C, and diluted in fresh medium prior to their use. The final concentration of DMSO in cell culture wells never exceeded 0.25% (v/v). The FDA-approved anticancer drug set is available from the Developmental Therapeutics Program at https://dtp.cancer.gov/organization/dscb/obtaining/available_plates.htm. All drugs and investigational agents were tested over a range starting from a high concentration at or near the clinical Cmax and decreasing in half-log increments. If the clinical Cmax for an agent had not been determined, the highest concentration tested was 10 microM.
Cell Lines. The patient-derived cancer cell (PDC) lines: 292921-168-R-J2-PDC, K24384-001-R-PDC, and 521955-158-R2-J5-PDC pancreatic carcinomas, 556581-035-R-J1 ovarian carcinoma, 324938-238-R-J1-PDC, 855422-203-R-J1-PDC and 883617-216-R-J1-PDC urothelial bladder carcinomas, 743489-274-T-PDC renal cell carcinoma, 138582-R-J1 Merkel cell tumor, K60290-347-R-J1 and K57222-313-R-J1-PDC glioblastomas, 653999-131-R-J2-PDC, LG0703-F948-PDC, and 349418-098-R-PDC non-small cell lung carcinomas, 885512-296-R-J2-PDC, 171881-019-R-J1-PDC breast carcinomas and 186277-243-T-J2-PDC and 233499-124-R-J2-PDC colon carcinomas were obtained from the NCI Patient-Derived Models Repository (PDMR, https://pdmr.cancer.gov). The established cell lines NCI/ADR-RES (RRID:CVCL_14520 and OVCAR-5 (RRID:CVCL_1628) ovarian carcinomas, 786-O (RRID:CVCL_1051) and A498 (RRID:CVCL_A498) renal cell carcinoma, NCI-H211 (ATCC, cat. CRL-5824; RRID:CVCL_1529), NCI-H196 (ATCC, cat. CRL-5823, RRID:CVCL_1509), SW 1271 (ATCC, cat. CRL-2177, RRID:CVCL_1716) and NCI-H1876 (ATCC, cat. CRL-5902, RRID:CVCL_1503) small cell lung carcinomas, MDA-MB-231 (RRID:CVCL_0062) and MDA-MB-468 (RRID:CVCL_0419)breast carcinomas (10-12). Pooled donor human umbilical vein endothelial cells (HUVEC, Lonza, cat. CC-2519) and human mesenchymal stem cells (hMSC, Lonza, cat. PT-2501) were purchased from Lonza (Walkersville, MD).
Cell Culture. All cells were maintained in an incubator at 37 degrees C and 5% CO2 with 95% humidity. The PDC lines were cultured according to standard operating procedures established by the NCI PDMR (https://pdmr.cancer.gov). Briefly all PDCs were thawed and cultured in Matrigel-coated flasks prepared with a working solution of 1X Ham's F-12 nutrient mix, without supplementation (Invitrogen, Waltham, MA, cat. 11765054), 100 U/mL penicillin-streptomycin (Invitrogen, cat. 15140122), and 2.5% Matrigel (Corning Inc., Corning, NY, cat. 354248) for the first three passages. […]
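Also: spheroids exposed to agents for 7 days before viability read.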

Compound: CC[C@@]1(O)C(=O)OCc2c1cc1n(c2=O)Cc2cc3c(CN(C)C)c(O)ccc3nc2-1 + NC1CC1c1ccc(-c2cccc(O)c2)cc1
- IC50 (second compound 0.1 µM): 0.00093 µM
- IC50 (second compound 0.316 µM): 0.00106 µM
- IC50 (second compound 1 µM): 0.000805 µM
- IC50 (second compound 3.16 µM): 0.000791 µM
- IC50 (second compound 10 µM): 0.000592 µM
- viability, T/C (second compound 0.1 µM, first compound 0.000316 µM): 92.2%
- viability, T/C (second compound 0.1 µM, first compound 0.001 µM): 47.2%
- viability, T/C (second compound 0.1 µM, first compound 0.00316 µM): 4.42%
- viability, T/C (second compound 0.1 µM, first compound 0.01 µM): 3.26%
- viability, T/C (second compound 0.1 µM, first compound 0.0316 µM): 2.54%
- viability, T/C (second compound 0.1 µM, first compound 0.1 µM): 1.68%
- viability, T/C (second compound 0.316 µM, first compound 0.000316 µM): 97.2%
- viability, T/C (second compound 0.316 µM, first compound 0.001 µM): 52.5%
- viability, T/C (second compound 0.316 µM, first compound 0.00316 µM): 4.34%
- viability, T/C (second compound 0.316 µM, first compound 0.01 µM): 2.93%
- viability, T/C (second compound 0.316 µM, first compound 0.0316 µM): 1.9%
- viability, T/C (second compound 0.316 µM, first compound 0.1 µM): 1.67%
- viability, T/C (second compound 1 µM, first compound 0.000316 µM): 92.2%
- viability, T/C (second compound 1 µM, first compound 0.001 µM): 40.2%
- viability, T/C (second compound 1 µM, first compound 0.00316 µM): 5.01%
- viability, T/C (second compound 1 µM, first compound 0.01 µM): 3.22%
- viability, T/C (second compound 1 µM, first compound 0.0316 µM): 2.56%
- viability, T/C (second compound 1 µM, first compound 0.1 µM): 1.7%
- viability, T/C (second compound 3.16 µM, first compound 0.000316 µM): 91.8%
- viability, T/C (second compound 3.16 µM, first compound 0.001 µM): 39.3%
- viability, T/C (second compound 3.16 µM, first compound 0.00316 µM): 4.57%
- viability, T/C (second compound 3.16 µM, first compound 0.01 µM): 2.89%
- viability, T/C (second compound 3.16 µM, first compound 0.0316 µM): 1.84%
- viability, T/C (second compound 3.16 µM, first compound 0.1 µM): 1.56%
- viability, T/C (second compound 10 µM, first compound 0.000316 µM): 72.7%
- viability, T/C (second compound 10 µM, first compound 0.001 µM): 31.1%
- viability, T/C (second compound 10 µM, first compound 0.00316 µM): 3.84%
- viability, T/C (second compound 10 µM, first compound 0.01 µM): 3.11%
- viability, T/C (second compound 10 µM, first compound 0.0316 µM): 2.42%
- viability, T/C (second compound 10 µM, first compound 0.1 µM): 1.6%

Compound: COc1cc(C2c3cc4c(cc3C(OC3OC5COC(C)OC5C(O)C3O)C3COC(=O)C23)OCO4)cc(OC)c1O (stereo not given) + NC1CC1c1ccc(-c2cccc(O)c2)cc1
- IC50 (second compound 0.1 µM): 0.0517 µM
- IC50 (second compound 0.316 µM): 0.0484 µM
- IC50 (second compound 1 µM): 0.0467 µM
- IC50 (second compound 3.16 µM): 0.0358 µM
- IC50 (second compound 10 µM): 0.019 µM
- viability, T/C (second compound 0.1 µM, first compound 0.00949 µM): 115%
- viability, T/C (second compound 0.1 µM, first compound 0.03 µM): 78.2%
- viability, T/C (second compound 0.1 µM, first compound 0.0949 µM): 18.4%
- viability, T/C (second compound 0.1 µM, first compound 0.3 µM): 5.27%
- viability, T/C (second compound 0.1 µM, first compound 0.949 µM): 3.81%
- viability, T/C (second compound 0.1 µM, first compound 3 µM): 3.41%
- viability, T/C (second compound 0.316 µM, first compound 0.00949 µM): 111%
- viability, T/C (second compound 0.316 µM, first compound 0.03 µM): 73.5%
- viability, T/C (second compound 0.316 µM, first compound 0.0949 µM): 17%
- viability, T/C (second compound 0.316 µM, first compound 0.3 µM): 4.71%
- viability, T/C (second compound 0.316 µM, first compound 0.949 µM): 3.36%
- viability, T/C (second compound 0.316 µM, first compound 3 µM): 2.8%
- viability, T/C (second compound 1 µM, first compound 0.00949 µM): 113%
- viability, T/C (second compound 1 µM, first compound 0.03 µM): 71%
- viability, T/C (second compound 1 µM, first compound 0.0949 µM): 16.5%
- viability, T/C (second compound 1 µM, first compound 0.3 µM): 5.06%
- viability, T/C (second compound 1 µM, first compound 0.949 µM): 4%
- viability, T/C (second compound 1 µM, first compound 3 µM): 3.54%
- viability, T/C (second compound 3.16 µM, first compound 0.00949 µM): 100%
- viability, T/C (second compound 3.16 µM, first compound 0.03 µM): 56%
- viability, T/C (second compound 3.16 µM, first compound 0.0949 µM): 17.2%
- viability, T/C (second compound 3.16 µM, first compound 0.3 µM): 3.77%
- viability, T/C (second compound 3.16 µM, first compound 0.949 µM): 3.77%
- viability, T/C (second compound 3.16 µM, first compound 3 µM): 2.6%
- viability, T/C (second compound 10 µM, first compound 0.00949 µM): 68.4%
- viability, T/C (second compound 10 µM, first compound 0.03 µM): 37.9%
- viability, T/C (second compound 10 µM, first compound 0.0949 µM): 9.86%
- viability, T/C (second compound 10 µM, first compound 0.3 µM): 3.55%
- viability, T/C (second compound 10 µM, first compound 0.949 µM): 3.7%
- viability, T/C (second compound 10 µM, first compound 3 µM): 3.37%
